Data reported in patent publication US5077301A, “4-(hydroxydiphenylmethyl)-1-piperidylphenylalkane derivatives as antihistamines and methods of treatment of an allergic response” (Schaper & Bruemmer GmbH & Co. KG, priority 1989, dated 1991).
Converted amounts (≈) assume the structure as drawn.

Legend:
[1] = tested on: isolated ileum of guinea pigs; assay: Spasmolysis of histamine-induced contraction on isolated guinea pig ileum, organ bath; type: cell-based; conditions: Cavia porcellus; histamine dihydrochloride as spasmogen, 0.2-2 μg/ml; at least six individual tests; read-out: ED50 on guinea pig ileum
Description: (§1) Experiments were carried out on the isolated ileum and on the isolated trachea of guinea pigs in a typical manner in vitro in a suitable organ bath. Histamine dihydrochloride was used as a spasmogen in a final concentration of 0.2-2 μg/ml, depending on the organ preparation. The activity of the compounds was determined from the reactive spasmolysis, i.e., the relative decrease in the force of contractions compared with zero dose. The concentration-action relation was calculated from the non-linear regression between dose and action from at least six individual tests.

[2] = tested on: isolated trachea of guinea pigs; assay: Spasmolysis of histamine-induced contraction on isolated guinea pig trachea, organ bath; type: cell-based; conditions: Cavia porcellus; histamine dihydrochloride as spasmogen, 0.2-2 μg/ml; at least six individual tests; read-out: ED50 on the isolated tracheal preparation
Description: as §1

[3] = tested on: histamine-induced skin weal in the mouse; assay: Duration of inhibition of histamine-induced skin weal in the mouse after a single oral dose; type: in vivo; conditions: oral administration of a comparable dose (to 6 mg/kg)
Description: The experiments were carried out on male NMRI mice with a body weight of 25-30 g. […] The dyestuff concentration determined by photometry in a defined area of skin can be designated a measure of the antihistamine activity.

IC50 [1] [µg/mL]	IC50 [2] [µg/mL]	SMILES	antihistamine action after 4 hours [3]
0.029 (≈ 0.0748 µM)	3.5 (≈ 9.03 µM)	COc1cccc(CN2CCC(C(O)(c3ccccc3)c3ccccc3)CC2)c1 [[4-(Hydroxydiphenylmethyl)-1-piperidyl]-(3-methoxyphenyl)methane]	
0.062 (≈ 0.131 µM)	4.1 (≈ 8.69 µM)	CC(C)(C)c1ccc(C(O)CCCN2CCC(C(O)(c3ccccc3)c3ccccc3)CC2)cc1 (stereo not drawn) [terfenadine, α-[4-(1,1-Dimethylethyl)phenyl]-4-(hydroxydiphenylmethyl)-1-piperidinobutanol]	no longer possible to measure reliably an antihistamine action
